The values below come from patent US20130330244A1, “COMPOSITIONS AND METHODS FOR TOPICAL NITRIC OXIDE GENERATION” (NIOXX LLC, priority 2011, published 2013).

The nature of data set [1]: Preservation of color and viscosity of the composition over time. The data set is classed as physicochemical. The note with it: used instead of ascorbic acid in the gel. The protocol: Gels were prepared according to the mixing procedure of Example 1, but with amounts of the ingredients to achieve molarities of those ingredients as shown below. Euxyl® PE9010 is a preservative having phenoxyethanol as the active ingredient (Schülke and Mayr, 30 Two Bridges Road Suite 225, Fairfield, N.J. 07004, USA).

The conditions of data set [2]: cited from earlier work.

As to `CCOC1=C(O)C(=O)O[C@@H]1[C@@H](O)CO` [3-O-ethyl ascorbic acid], the “color and viscosity stability of composition” value in data set [1] was “preserves the color and viscosity of the composition over long periods of time”.
On to `O=NO` [Nitrous acid], for which the pKa in data set [2] was 3.37.

Usually pKa stands for the negative logarithm of the acid dissociation constant.
